The source of these data is patent publication US20230265151A1, “GIP/GLP1 CO-AGONIST COMPOUNDS” (priority 2020, published 2023).

Holding throughout (format): cell-based
Assay [1] has as its target hGLP-1R (Homo sapiens, UniProt P43220). The experiment in a line: Functional cAMP formation (HTRF) in HEK-293 clonal cells expressing hGLP-1R, 0.1% bovine casein, without or with 1.0% human serum albumin. Set-up: expressed in transfected cells. As to conditions: for EC50: geometric mean; for Emax: percent of maximal response to GLP-1(7-36)NH2. An outline of the steps: (§1)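 Cells were stimulated with peptide for 30 min at 37° C, then lysed in buffer carrying cAMP-d2 and anti-cAMP Eu3+-cryptate for a competitive HTRF read after at least 60 min at room temperature. The 665/620 nm ratio was converted to nM cAMP against a standard curve.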
(Changes in cAMP serve as a functional read-out for many G protein-coupled receptors.)

Assay [2] concerns the target T1, hGCGR (Homo sapiens, UniProt P47871).
T1 construct: expressed in transfected cells
The experiment in a line: Functional cAMP formation (HTRF) in HEK-293 clonal cells expressing hGCGR, 0.1% bovine casein, without or with 1.0% human serum albumin. As to conditions: geometric mean. In a few lines: as §1

Assay [3] has as its target T2, hGIPR (Homo sapiens, UniProt P48546).
T2 construct: expressed in transfected cells
T2 sequence (P48546 22-466): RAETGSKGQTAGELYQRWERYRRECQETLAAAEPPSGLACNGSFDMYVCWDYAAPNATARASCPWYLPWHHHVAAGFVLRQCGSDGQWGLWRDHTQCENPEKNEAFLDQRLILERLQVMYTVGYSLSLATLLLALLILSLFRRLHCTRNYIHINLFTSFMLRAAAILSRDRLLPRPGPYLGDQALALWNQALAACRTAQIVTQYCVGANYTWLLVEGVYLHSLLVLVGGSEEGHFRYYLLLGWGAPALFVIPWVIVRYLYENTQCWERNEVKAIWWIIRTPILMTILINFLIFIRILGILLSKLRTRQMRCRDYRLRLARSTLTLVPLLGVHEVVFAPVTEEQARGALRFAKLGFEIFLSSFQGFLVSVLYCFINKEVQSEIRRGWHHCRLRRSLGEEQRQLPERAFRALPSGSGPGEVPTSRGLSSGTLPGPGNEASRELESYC
The experiment in a line: Functional cAMP formation (HTRF) in HEK-293 clonal cells expressing hGIPR, 0.1% bovine casein, without or with 1.0% human serum albumin. The settings on record: for EC50: geometric mean. An outline of the steps: as §1

The mark [4] stands for this setting: cAMP, incubated at 37° C., 0.1% bovine casein (no human serum albumin), read-out: hGLP-1R EC50, nM (SEM, n).
The mark [5] stands for this setting: 0.1% bovine casein and 1.0% human serum albumin, 37° C., read-out: hGCGR EC50, nM (SEM, n).
Where [6] appears, read: cAMP, incubated at 37° C., 0.1% bovine casein (no human serum albumin), read-out: hGCGR EC50, nM (SEM, n).
[7] abbreviates: HEK293, 0.1% bovine casein and 1.0% human serum albumin, 37° C., percent of maximal response to GIP(1-42)NH2, read-out: hGIPR Emax, % ± SEM.
The mark [8] stands for this setting: 0.1% bovine casein and 1.0% human serum albumin, 37° C., read-out: hGLP-1R EC50, nM (SEM, n).
Where [9] appears, read: 0.1% bovine casein and 1.0% human serum albumin, 37° C., read-out: hGIPR EC50, nM (SEM, n).

Read-outs that look alike come from different tables or passages of the source. *1 amine or outer side, *2 acyl side, *3 side chain or, on linkers, in order; H or OH if unused. Where a SMILES comes first, the peptide text is derived from it. Side-chain parts run from the residue outwards. [ ]: non-standard residue; d: D form. The star is where a group is joined. αMePhe(2-F) = C[C@](N)(Cc1ccccc1F)C(=O)O; γGlu = O=C(O)[C@H](CCC(=O)[*:2])N[*:1]; αMeY = C[C@](N)(Cc1ccc(O)cc1)C(=O)O; 4Pal = N[C@@H](Cc1ccncc1)C(=O)O; αMeL = CC(C)C[C@](C)(N)C(=O)O; Lauroyl = CCCCCCCCCCCC(=O)*; Orn = NCCC[C@H](N)C(=O)O; AEEA = NCCOCCOCC(=O)O; Aib = CC(C)(N)C(=O)O

T1 sequence (P47871 26-477): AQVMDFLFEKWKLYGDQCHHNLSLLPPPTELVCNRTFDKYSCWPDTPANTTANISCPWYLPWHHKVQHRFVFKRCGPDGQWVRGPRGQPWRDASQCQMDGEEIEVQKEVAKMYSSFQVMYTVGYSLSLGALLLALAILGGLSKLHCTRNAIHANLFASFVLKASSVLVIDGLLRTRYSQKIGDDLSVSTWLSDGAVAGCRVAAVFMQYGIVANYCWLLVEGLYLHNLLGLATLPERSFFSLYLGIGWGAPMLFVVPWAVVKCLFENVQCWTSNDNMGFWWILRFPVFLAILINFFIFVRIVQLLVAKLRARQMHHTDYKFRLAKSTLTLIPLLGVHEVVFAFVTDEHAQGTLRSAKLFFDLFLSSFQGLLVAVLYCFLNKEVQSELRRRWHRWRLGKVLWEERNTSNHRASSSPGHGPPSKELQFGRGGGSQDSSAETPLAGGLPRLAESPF
Sequence of hGLP-1R (P43220 24-463): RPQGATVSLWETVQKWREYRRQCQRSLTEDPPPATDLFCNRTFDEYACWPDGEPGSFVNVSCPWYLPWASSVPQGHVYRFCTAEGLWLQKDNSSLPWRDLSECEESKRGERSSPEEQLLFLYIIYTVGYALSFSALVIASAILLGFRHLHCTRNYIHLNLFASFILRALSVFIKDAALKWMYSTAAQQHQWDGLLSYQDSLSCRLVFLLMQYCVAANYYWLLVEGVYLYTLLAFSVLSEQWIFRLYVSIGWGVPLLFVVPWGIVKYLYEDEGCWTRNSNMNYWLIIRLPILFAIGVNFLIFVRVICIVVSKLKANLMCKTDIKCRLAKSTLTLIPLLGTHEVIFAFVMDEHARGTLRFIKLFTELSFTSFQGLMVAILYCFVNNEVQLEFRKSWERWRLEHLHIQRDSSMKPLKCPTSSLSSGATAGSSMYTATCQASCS

For the compound `CC[C@H](C)[C@H](NC(=O)[C@H](CC(C)C)NC(=O)[C@](C)(Cc1ccc(O)cc1)NC(=O)[C@@H](CCC(=O)O)NC(=O)[C@@H](NC(=O)[C@H](Cc1ccccc1)NC(=O)[C@H](CCC(=O)O)NC(=O)C(C)(C)NC(=O)[C@H](CCC(N)=O)NC(=O)CNC(=O)[C@H](CCCCNC(=O)COCCOCCNC(=O)COCCOCCNC(=O)CC[C@H](NC(=O)CCCCCCCCCCCCC(=O)O)C(=O)O)NC(=O)[C@H](CCCN)NC(=O)[C@H](CC(=O)O)NC(=O)[C@H](CC(C)C)NC(=O)[C@](C)(CC(C)C)NC(=O)[C@@H](NC(=O)[C@H](CO)NC(=O)[C@H](Cc1ccncc1)NC(=O)[C@H](CC(=O)O)NC(=O)[C@H](CO)NC(=O)[C@@H](NC(=O)[C@](C)(Cc1ccccc1F)NC(=O)[C@@H](NC(=O)CNC(=O)[C@H](CCC(=O)O)NC(=O)C(C)(C)NC(=O)[C@@H](N)Cc1ccc(O)cc1)[C@@H](C)O)[C@@H](C)O)[C@@H](C)CC)[C@@H](C)CC)C(=O)N[C@@H](CCC(=O)O)C(=O)NCC(=O)NCC(=O)N[C@@H](CCCCNC(=O)COCCOCCNC(=O)COCCOCCNC(=O)CC[C@H](NC(=O)CCCCCCCCCCCCC(=O)O)C(=O)O)C(=O)N[C@@H](CO)C(=O)N[C@@H](CO)C(=O)NCC(=O)N[C@@H](C)C(=O)N1CCC[C@H]1C(=O)N1CCC[C@H]1C(=O)N1CCC[C@H]1C(=O)N[C@@H](CO)C(N)=O` [Example 102], the EC50 (commonly the concentration at which the effect is half-maximal) is 19.1 nM in assay [1] (setting [4]), more than 9950 nM in assay [2] (setting [5]) and more than 9950 nM in assay [2] (setting [6]). Also, in assay [3] (setting [7]), the maximal response (Emax) – broadly, the size of the effect at its maximum, as opposed to the concentration needed – stood at 96.9%.
Regarding `CC[C@H](C)[C@H](NC(=O)[C@H](CC(C)C)NC(=O)[C@](C)(Cc1ccc(O)cc1)NC(=O)[C@@H](CCC(=O)O)NC(=O)[C@@H](NC(=O)[C@H](Cc1ccccc1)NC(=O)[C@H](CCC(=O)O)NC(=O)C(C)(C)NC(=O)[C@H](CCC(N)=O)NC(=O)[C@H](C)NC(=O)[C@H](CCCCNC(=O)COCCOCCNC(=O)COCCOCCNC(=O)CC[C@H](NC(=O)CCCc1ccc(C(C)(C)C)cc1)C(=O)O)NC(=O)[C@H](CCCN)NC(=O)[C@H](CC(=O)O)NC(=O)[C@H](CC(C)C)NC(=O)[C@](C)(CC(C)C)NC(=O)[C@@H](NC(=O)[C@H](CO)NC(=O)[C@H](Cc1ccncc1)NC(=O)[C@H](CC(=O)O)NC(=O)[C@H](CO)NC(=O)[C@@H](NC(=O)[C@](C)(Cc1ccccc1F)NC(=O)[C@@H](NC(=O)CNC(=O)[C@H](CCC(=O)O)NC(=O)C(C)(C)NC(=O)[C@@H](N)Cc1ccc(O)cc1)[C@@H](C)O)[C@@H](C)O)[C@@H](C)CC)[C@@H](C)CC)C(=O)N[C@@H](CCC(=O)O)C(=O)NCC(=O)NCC(=O)N1CCC[C@H]1C(=O)N[C@@H](CO)C(=O)N[C@@H](CO)C(=O)NCC(=O)N[C@@H](C)C(=O)N1CCC[C@H]1C(=O)N1CCC[C@H]1C(=O)N1CCC[C@H]1C(=O)N[C@@H](CO)C(=O)N[C@@H](CCCCNC(=O)COCCOCCNC(=O)COCCOCCNC(=O)CC[C@H](NC(=O)CCCc1ccc(C(C)(C)C)cc1)C(=O)O)C(N)=O` [Example 135], the 50% effective concentration (EC50) in assay [1] (setting [8]) was 0.936 nM; in assay [1] (setting [4]) it was 0.271 nM; in assay [2] (setting [5]), more than 9950 nM; in assay [2] (setting [6]) it was more than 9950 nM; in assay [3] (setting [9]), 0.0609 nM; in assay [3] (cAMP, incubated at 37° C., 0.1% bovine casein (no human serum albumin), read-out: hGIPR EC50, nM (SEM, n)), 0.0184 nM. Moreover, the Emax in assay [3] (setting [7]) turned out to be 91.2 ± 4.78%; in assay [3] (HEK293, percent of maximal response to GIP(1-42)NH2, 37° C., 0.1% bovine casein, arithmetic mean, read-out: hGIPR Emax, % ± SEM), 92.3 ± 2.64%.
Take `CC[C@H](C)[C@H](NC(=O)[C@H](CC(C)C)NC(=O)[C@](C)(Cc1ccc(O)cc1)NC(=O)[C@@H](CCC(=O)O)NC(=O)[C@@H](NC(=O)[C@H](Cc1ccccc1)NC(=O)[C@H](CCCCNC(=O)COCCOCCNC(=O)COCCOCCNC(=O)CC[C@H](NC(=O)CCCCCCCCCOc1ccc(C(=O)O)cc1)C(=O)O)NC(=O)C(C)(C)NC(=O)[C@H](CCC(N)=O)NC(=O)[C@H](C)NC(=O)[C@H](CCCCNC(=O)COCCOCCNC(=O)COCCOCCNC(=O)CC[C@H](NC(=O)CCCCCCCCCOc1ccc(C(=O)O)cc1)C(=O)O)NC(=O)[C@H](CCCN)NC(=O)[C@H](CC(=O)O)NC(=O)[C@H](CC(C)C)NC(=O)[C@](C)(CC(C)C)NC(=O)[C@@H](NC(=O)C(C)(C)NC(=O)[C@@H](NC(=O)[C@H](CC(=O)O)NC(=O)[C@H](CO)NC(=O)[C@@H](NC(=O)[C@](C)(Cc1ccccc1F)NC(=O)[C@@H](NC(=O)CNC(=O)[C@H](CCC(=O)O)NC(=O)C(C)(C)NC(=O)[C@@H](N)Cc1ccc(O)cc1)[C@@H](C)O)[C@@H](C)O)C(C)C)[C@@H](C)CC)[C@@H](C)CC)C(=O)N[C@@H](CCC(=O)O)C(=O)NCC(=O)NCC(=O)N1CCC[C@H]1C(=O)N[C@@H](CO)C(=O)N[C@@H](CO)C(=O)NCC(=O)N[C@@H](C)C(=O)N1CCC[C@H]1C(=O)N1CCC[C@H]1C(=O)N1CCC[C@H]1C(=O)N[C@@H](CO)C(N)=O` [Example 319]: the Emax was found to be 114% in assay [1] (HEK293, read-out: hGLP-1R Emax, % ± SEM, 0.1% bovine casein and 1.0% human serum albumin, 37° C.); 100% in assay [1] (HEK293, read-out: hGLP-1R Emax, % ± SEM, cAMP, 37° C., 0.1% bovine casein, arithmetic mean); 92.5% in assay [3] (HEK293, read-out: hGIPR Emax, % ± SEM, 0.1% bovine casein and 1.0% human serum albumin, 37° C., percent of maximal response to GIP(1-42)NH2); 98.1% in assay [3] (HEK293, read-out: hGIPR Emax, % ± SEM, cAMP, 37° C., 0.1% bovine casein, percent of maximal response to GIP(1-42)NH2, arithmetic mean). In addition, the EC50 was 0.18 nM in assay [1] (hGLP-1R EC50, nM (SEM, n), cAMP, 37° C., 0.1% bovine casein (no human serum albumin)); more than 9950 nM in assay [2] (hGCGR EC50, nM (SEM, n), 0.1% bovine casein and 1.0% human serum albumin, 37° C.); more than 9950 nM in assay [2] (hGCGR EC50, nM (SEM, n), cAMP, 37° C., 0.1% bovine casein (no human serum albumin)); 0.0196 nM in assay [3] (hGIPR EC50, nM (SEM, n), cAMP, 37° C., 0.1% bovine casein (no human serum albumin)).
Take `CCCCCCCCCCCC(=O)N[C@@H](CCC(=O)NCCOCCOCC(=O)NCCOCCOCC(=O)NCCCC[C@H](NC(=O)[C@H](CCCN)NC(=O)[C@H](CC(=O)O)NC(=O)[C@H](CC(C)C)NC(=O)[C@](C)(CC(C)C)NC(=O)[C@@H](NC(=O)[C@H](CO)NC(=O)[C@H](Cc1ccncc1)NC(=O)[C@H](CC(=O)O)NC(=O)[C@H](CO)NC(=O)[C@@H](NC(=O)[C@](C)(Cc1ccccc1F)NC(=O)[C@@H](NC(=O)CNC(=O)[C@H](CCC(=O)O)NC(=O)C(C)(C)NC(=O)[C@@H](N)Cc1ccc(O)cc1)[C@@H](C)O)[C@@H](C)O)[C@@H](C)CC)C(=O)N[C@@H](C)C(=O)N[C@@H](CCC(N)=O)C(=O)NC(C)(C)C(=O)N[C@@H](CCC(=O)O)C(=O)N[C@@H](Cc1ccccc1)C(=O)N[C@H](C(=O)N[C@H](CCC(=O)O)C(=O)N[C@@](C)(Cc1ccc(O)cc1)C(=O)N[C@@H](CC(C)C)C(=O)N[C@H](C(=O)N[C@@H](CCCCNC(=O)COCCOCCNC(=O)COCCOCCNC(=O)CC[C@H](NC(=O)CCCCCCCCCCC)C(=O)O)C(=O)NCC(=O)NCC(N)=O)[C@@H](C)CC)[C@@H](C)CC)C(=O)O` [Example 296] (H-Y[Aib]EGT[αMePhe(2-F)]TSD[4Pal]SI[αMeL]LD[Orn]K([AEEA-AEEA-γGlu-Lauroyl])AQ[Aib]EFI[dE][αMeY]LIK([AEEA-AEEA-γGlu-Lauroyl])GG-NH2; N-terminus assumed): the EC50 in assay [1] (setting [8]) is 13 nM; in assay [1] (cAMP, 37° C., 0.1% bovine casein (no human serum albumin), read-out: hGLP-1R EC50, nM (SEM, n)) it was 0.108 nM; in assay [2] (setting [5]) it was more than 9950 nM; in assay [2] (cAMP, 37° C., 0.1% bovine casein (no human serum albumin), read-out: hGCGR EC50, nM (SEM, n)), more than 9950 nM; in assay [3] (setting [9]) it was 0.823 nM; in assay [3] (cAMP, 37° C., 0.1% bovine casein (no human serum albumin), read-out: hGIPR EC50, nM (SEM, n)), 0.0121 nM. The Emax in assay [1] (HEK293, 0.1% bovine casein and 1.0% human serum albumin, 37° C., read-out: hGLP-1R Emax, % ± SEM) came out at 109%; in assay [1] (HEK293, cAMP, 37° C., 0.1% bovine casein, arithmetic mean, read-out: hGLP-1R Emax, % ± SEM) it was 109%; in assay [3] (setting [7]), 91.9%; in assay [3] (HEK293, cAMP, 37° C., 0.1% bovine casein, percent of maximal response to GIP(1-42)NH2, arithmetic mean, read-out: hGIPR Emax, % ± SEM), 100%.
